Reference: patent US20040077674A1, “Mappicine analogs, intermediates in the synthesis of mappicine analogs and methods of synthesis of mappicine analogs” (priority 2002, published 2004)
Values joined by “and” are separate entries in the source; they are usually repeats but may differ in a detail not shown here. Identical values can stand only once. Like-named read-outs stand apart in the source and are kept apart here.

Columns and labels:
[1] = target: T1, RNA-dependent DNA polymerase activity of HIV reverse transcriptase (Human immunodeficiency virus type 1 group M subtype B, UniProt P03366); assay: RNA-dependent DNA polymerase activity assay of HIV reverse transcriptase; format: biochemical, HIV-1; details: 10 μM inhibitor concentration, activity in presence / in absence of analog x 100; for remaining activity at 10 µM: read-out: Residual activity (%) Polymerase
T1 construct: made in house
How it was run: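 Single-concentration test of mappicine analogs at 10 μM final against the RNA-dependent DNA polymerase activity of HIV RT. Value is % residual activity: polymerase activity with analog divided by activity without analog, ×100.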

[2] = target: T2, RNase H activity of HIV reverse transcriptase (Human immunodeficiency virus type 1 group M subtype B, UniProt P03366); assay: Fluorescence (FRET)-based RNase H assay of HIV reverse transcriptase; format: biochemical, HIV-1; details: for Residual activity (%) RNase H / remaining activity at 10 µM: 10 μM inhibitor concentration, activity in presence / in absence of analog x 100; for remaining activity at 10 µM: read-out: Residual activity (%) RNase H; for IC50: in vitro, read-out: IC50 (μM) against HIV RNase H in vitro
T2 construct: 2.5 nM of the p51/p66 RT heterodimer in the assay; made in house

HIV-1 replication [3] = assay: HIV-1 replication in cultured cells (cell culture viral growth assay); format: cell-based
cells [4] = details: cited from earlier work
[5] = target: T2, RNase H activity of HIV reverse transcriptase; details: read-out: IC50 of RNase H inhibition; literature (Borkow et al. 1997); cited from earlier work
HIV-1 replication [6] = details: published RNase H inhibitors; cited from earlier work
cells [7] = details: cited from earlier work; remark: listed apart in the source
[8] = tested on: mutant HIV-1 strain with V106A+Y181C in the viral reverse transcriptase; assay: Replication of NNRTI-resistant mutant HIV-1 strain V106A+Y181C in cultured cells; format: cell-based; details: V106A+Y181C mutant HIV-1; read-out: EC50 of inhibition of replication of resistant virus strain
[9] = tested on: mutant HIV-1 strain with K103N+Y181C in the viral reverse transcriptase; assay: Replication of NNRTI-resistant mutant HIV-1 strain K103N+Y181C in cultured cells; format: cell-based; details: K103N+Y181C mutant HIV-1; read-out: EC50 of inhibition of replication of resistant virus strain
[10] = Human immunodeficiency virus 1, cell culture viral growth assays, read-out: EC50 (μM) against HIV-1 replication

Row | Structure (SMILES) | Residual activity (%) Polymerase [1] [%] | Residual activity (%) RNase H [2] [%] | also measured
1 | CCCCCCc1c2c(nc3ccc(F)cc13)-c1cc(C(=O)CC)c(C)c(=O)n1C2 [5 (8Bακ)] | 64 | 103 | –
2 | CCCCCCc1c2c(nc3ccc(F)cc13)-c1cc(C(O)C(C)(C)C)c(C)c(=O)n1C2 (centres unmarked) [5 (8Bβ)] | 50 | 97 | –
3 | CCCCCCc1c2c(nc3ccc(F)cc13)-c1cc(C(=O)C(C)(C)C)c(C)c(=O)n1C2 [5 (8Bβκ)] | 44 | 81 | –
4 | CCCCCCc1c2c(nc3ccc(F)cc13)-c1cc(C(O)CCC3CCCCC3)c(C)c(=O)n1C2 (centres unmarked) [5 (8Bδ)] | 90 | 112 | –
5 | CCCCCCc1c2c(nc3ccc(F)cc13)-c1cc(C(=O)CCC3CCCCC3)c(C)c(=O)n1C2 [5 (8Bδκ)] | 80 | 95 | –
6 | CCCCCCc1c2c(nc3ccc(F)cc13)-c1cc(C(O)Cc3ccccc3)c(C)c(=O)n1C2 (centres unmarked) [5 (8Bε)] | 92 | 84 | –
7 | CCCCCCc1c2c(nc3ccc(C)cc13)-c1cc(C(O)CC)c(C)c(=O)n1C2 (centres unmarked) [5 (8Cα)] | 84 | 65 | –
8 | CCCCCCc1c2c(nc3ccc(C)cc13)-c1cc(C(=O)CC)c(C)c(=O)n1C2 [5 (8Cακ)] | 31 | 92 | –
9 | CCCCCCc1c2c(nc3ccc(C)cc13)-c1cc(C(O)C(C)(C)C)c(C)c(=O)n1C2 (centres unmarked) [5 (8Cβ)] | 111 | 93 | –
10 | CCCCCCc1c2c(nc3ccc(C)cc13)-c1cc(C(=O)C(C)(C)C)c(C)c(=O)n1C2 [5 (8Cβκ)] | 66 | 95 | –
11 | CCCCCCc1c2c(nc3ccc(C)cc13)-c1cc(C(O)CCC3CCCCC3)c(C)c(=O)n1C2 (centres unmarked) [5 (8Cδ)] | 73 | 72 | –
12 | CCCCCCc1c2c(nc3ccc(C)cc13)-c1cc(C(=O)CCC3CCCCC3)c(C)c(=O)n1C2 [5 (8Cδκ)] | 79 | 95 | –
13 | CCCCCCc1c2c(nc3ccc(C)cc13)-c1cc(C(O)Cc3ccccc3)c(C)c(=O)n1C2 (centres unmarked) [5 (8Cε)] | 76 | 76 | –
14 | CCCCCCc1c2c(nc3ccc(C)cc13)-c1cc(C(=O)Cc3ccccc3)c(C)c(=O)n1C2 [5 (8Cεκ)] | 66 | 86 | –
15 | CCCCCCc1c2c(nc3ccc(OC)cc13)-c1cc(C(O)CC)c(C)c(=O)n1C2 (centres unmarked) [5 (8Dα)] | 85 | 66 | –
16 | CCCCCCc1c2c(nc3ccc(OC)cc13)-c1cc(C(=O)CC)c(C)c(=O)n1C2 [5 (8Dακ)] | 51 | 84 | –
17 | CCCCCCc1c2c(nc3ccc(OC)cc13)-c1cc(C(O)C(C)(C)C)c(C)c(=O)n1C2 (centres unmarked) [5 (8Dβ)] | 68 | 67 | –

Row | Structure (SMILES) | Residual activity (%) Polymerase [1] [%] | Residual activity (%) RNase H [2] [%] | also measured
18 | CCCCCCc1c2c(nc3ccc(OC)cc13)-c1cc(C(=O)C(C)(C)C)c(C)c(=O)n1C2 [5 (8Dβκ)] | 90 | 88 | –
19 | CCCCCCc1c2c(nc3ccc(OC)cc13)-c1cc(C(O)CCC3CCCCC3)c(C)c(=O)n1C2 (centres unmarked) [5 (8Dδ)] | 81 | 63 | –
20 | CCCCCCc1c2c(nc3ccc(OC)cc13)-c1cc(C(=O)CCC3CCCCC3)c(C)c(=O)n1C2 [5 (8Dδκ)] | 65 | 90 | –
21 | CCCCCCc1c2c(nc3ccc(OC)cc13)-c1cc(C(O)Cc3ccccc3)c(C)c(=O)n1C2 (centres unmarked) [5 (8Dε)] | 73 | 82 | –
22 | Cc1ccc2nc3c(c(-c4ccccc4)c2c1)Cn1c-3cc(C(O)C(C)(C)C)c(C)c1=O (stereo not drawn) [5 (30β)] | 70 | 84 | –
23 | Cc1ccc2nc3c(c(-c4ccccc4)c2c1)Cn1c-3cc(C(O)CCC2CCCCC2)c(C)c1=O (centres unmarked) [5 (30δ)] | 74 | 93 | –
24 | CCC(O)c1cc2n(c(=O)c1C)Cc1c-2nc2ccccc2c1[Si](C)(C)C (centres unmarked) [5 (AG 1M)] | – | – | Residual activity (%) Polymerase ([1]; 10 µM): 89%; Residual activity (%) RNase H ([2]; 10 µM): 73%
25 | CCC(O)c1cc2n(c(=O)c1C)Cc1c-2nc2ccc(NC(=O)OC(C)(C)C)cc2c1[Si](C)(C)C (centres unmarked) [5 (AG 2M), 2-tert-Butyloxycarbonylamino-7-(1-hydroxypropyl)-8-methyl-12-trimethylsilanyl-11H-indolizino [1,2-b]quinolin-9-one] | – | – | remaining activity at 10 µM [1]: 80%; EC50 (HIV-1 replication [3]; [10]): ~5 µM; remaining activity at 10 µM [2]: 47%; IC50 [2]: < 10 µM and 8 µM
26 | CCC(O)c1cc2n(c(=O)c1C)Cc1c-2nc2ccc(N)cc2c1[Si](C)(C)C (centres unmarked) [5 (AG 3M), 2-Amino-7-(1-hydroxypropyl)-8-methyl-12-trimethylsilanyl-1 1H-indolizino[1,2-b]quinolin-9-one] | – | – | remaining activity at 10 µM [1]: 123%; remaining activity at 10 µM [2]: 63%
27 | CCc1c2c(nc3ccccc13)-c1cc(C(O)CC)c(C)c(=O)n1C2 (centres unmarked) [5 (AG 4M)] | 100 | 74 | –
28 | CCc1c2c(nc3ccc(NC(=O)OC(C)(C)C)cc13)-c1cc(C(O)CC)c(C)c(=O)n1C2 (centres unmarked) [5 (AG 5M), 2-tert-Butyloxycarbonylamino-12-ethyl-7-(1-hydroxypropyl)-8-methyl-11H-indolizino[1,2-b]quinolin-9-one] | – | – | remaining activity at 10 µM [1]: 87%; remaining activity at 10 µM [2]: 68%
29 | CCc1c2c(nc3ccc(N)cc13)-c1cc(C(O)CC)c(C)c(=O)n1C2 (centres unmarked) [5 (AG 6M), 2-Amino-12-ethyl-7-(1-hydroxypropyl)-8-methyl-1 1H-indolizinol[1,2-b]quinolin-9-one] | – | – | remaining activity at 10 µM [1]: 76%; EC50 (HIV-1 replication [3]; [10]): ~5 µM; remaining activity at 10 µM [2]: 57%; IC50 [2]: < 10 µM and 10 µM
30 | CCc1c2c(nc3ccc(O)cc13)-c1cc(C(O)CC)c(C)c(=O)n1C2 (centres unmarked) [5 (AG 8M), 12-Ethyl-2-hydroxy-7-(1-hydroxypropyl)-8-methyl-11H-indolizino[1,2-b]quinolin-9-one] | – | – | remaining activity at 10 µM [1]: 69%; remaining activity at 10 µM [2]: 87%
31 | CC(C)(C)c1ccc(C(=O)NN=Cc2c(O)ccc3ccccc23)cc1 [BBNH, N-4-(t-butylbenzoyl)-2-hydroxy-1-naphthaldehyde hydrazone] | – | – | toxicity to cells (in words) (cells [4]): highly toxic to cells; IC50 [2]: 1.8 µM; IC50 [5]: ~2000 nM; antiviral activity against HIV-1 replication in cultured cells (in words) (HIV-1 replication [6]): demonstrated antiviral activity against HIV-1 replication in cultured cells
32 | O=C(O)C(=O)CC(=O)c1ccc(NC(=O)c2ccccc2)s1 [BTOBA, 4-[5-(benzoylamino)thien-2-yl]-2,4-dioxobutanoic acid] | – | – | ability to penetrate cells (in words) (cells [7]): Neither CPHM nor BTOBA are able to penetrate cells; antiviral activity against HIV-1 replication in cultured cells (in words) (HIV-1 replication [6]): cannot inhibit HIV-1 replication in cultured cells
33 | O=C(O)C(=NNc1ccc(Cl)cc1)C(=O)O [CPHM, 2-[(4-chlorophenyl)-hydrazono]-malonic acid] | – | – | ability to penetrate cells (in words) (cells [7]): Neither CPHM nor BTOBA are able to penetrate cells; antiviral activity against HIV-1 replication in cultured cells (in words) (HIV-1 replication [6]): cannot inhibit HIV-1 replication in cultured cells
34 | CCCc1c2c(nc3ccc(Cl)cc13)-c1cc(C(O)CCC3CCCCC3)c(C)c(=O)n1C2 (centres unmarked) [Compound 7.5.6] | – | – | EC50 (HIV-1 replication [3]; wild-type HIV-1 in cultured cells, read-out: EC50 of inhibition of replication of wild-type HIV-1): ~3 µM; EC50 [8]: 4.2 µM; % inhibition of RNase H at 20 μM ([2]; 20 μM inhibitor concentration): 100%; inhibitory activity against HIV-1 RNase H (in words) ([2]; dose-response curves FIG. 13, 10 μM or 20 μM screens): possess inhibitory activity against HIV-1 RNase H; EC50 [9]: 3.5 µM
